Measurements: ChEMBL document CHEMBL1201862, “PubChem BioAssay data set” (2004)
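Growth conditions: 96-well plates. Treatment: test compound, 48 hours, 5 concentrations. Analysis: linear interpolation between bracketing concentrations; unreached endpoints set to highest concentration. Here, GI50 denotes the concentration required for 50% inhibition of growth.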 Calls of active or inactive are those of the source. Cut-off read from the data, not from the text of the source: active = GI50 up to about 1.1 µM and inactive = higher.

Key:
Test in all cases: NCI anticancer screen, dose series, 48 h
[1] = system: OVCAR-4
[2] = system: Malme-3M
[3] = system: IGROV-1
[4] = system: SF-268
[5] = system: HCT-116
[6] = system: A498
[7] = system: MOLT-4
[8] = system: M14
[9] = system: CCRF-CEM
[10] = system: RXF 393
[11] = system: OVCAR-5
[12] = system: CAKI-1
[13] = system: HOP-62
[14] = system: HCC 2998
[15] = system: ACHN
[16] = system: COLO 205
[17] = system: SR
[18] = system: SK-MEL-2
[19] = system: TK-10

Measured: GI50

O=C1C(Cl)=C(Cl)C(=O)N1c1ccccc1Cl
inactive: [1] > 100 µM | [2] > 52.5 µM | [3] > 100 µM | [4] > 100 µM | [5] > 100 µM | [6] > 100 µM | [7] 30.9 µM | [8] > 75.9 µM | [9] 11.9 µM | [10] 50.2 µM | [11] > 100 µM | [12] > 44.2 µM | [13] > 100 µM | [14] > 100 µM | [15] > 100 µM | [16] > 63.7 µM | [17] 14.7 µM | [18] > 100 µM | [19] > 100 µM

CN1CCOC(C(NC(=O)c2ccccc2)c2ccccc2)C1=O (configuration not stated)
inactive: [1] > 100 µM | [2] > 100 µM | [3] > 100 µM | [4] > 100 µM | [5] > 100 µM | [6] > 100 µM | [7] > 100 µM | [8] > 100 µM | [9] > 100 µM | [10] > 100 µM | [11] > 100 µM | [12] > 100 µM | [13] > 100 µM | [14] > 100 µM | [15] > 100 µM | [16] > 100 µM | [17] > 100 µM | [18] > 100 µM | [19] > 100 µM

O=C(NC1CCCCCC1)C1C(=O)N(C2CCCCCC2)C(=O)/C1=N\O (configuration not stated)
inactive: [1] 44.1 µM | [2] 24.4 µM | [3] 50 µM | [4] 29.1 µM | [5] 17.3 µM | [6] 32.9 µM | [7] 21.5 µM | [8] 32.1 µM | [9] 27.2 µM | [10] 23.5 µM | [11] 50.8 µM | [12] 40.2 µM | [13] 18.7 µM | [14] 19.5 µM | [15] 35.2 µM | [16] 17.3 µM | [17] 23.8 µM | [18] 17.1 µM | [19] 6.12 µM

CCOc1cccc(/C=N/N=C2\C(=O)Nc3c(Cl)cc(Cl)cc32)c1O
inactive: [1] 62.8 µM | [2] > 100 µM | [3] 74.8 µM | [5] 74.3 µM | [6] 36.6 µM | [7] 28.4 µM | [8] 73.3 µM | [9] 31.6 µM | [10] > 100 µM | [11] > 100 µM | [12] > 100 µM | [13] 30.4 µM | [14] 85.7 µM | [15] > 100 µM | [16] > 100 µM | [17] 29.4 µM | [18] 83.8 µM | [19] > 100 µM

O=[N+]([O-])c1cc(/C=N\NS(=O)(=O)c2ccc(Cl)cc2)c(O)c([N+](=O)[O-])c1
inactive: [1] 36.7 µM | [2] 36.6 µM | [3] 74.8 µM | [4] 38 µM | [5] 30.1 µM | [6] 35.7 µM | [7] 29.2 µM | [8] 32.4 µM | [9] 24.4 µM | [10] 32.8 µM | [11] > 100 µM | [12] 30.5 µM | [13] 47.3 µM | [14] 85.7 µM | [15] 49.8 µM | [16] 16.1 µM | [17] 21 µM | [18] 31.1 µM | [19] > 100 µM

COC(=O)N/N=c1\cc(C(=O)Nc2ccc(C)c(C)c2)oc2cc(O)ccc12
inactive: [1] > 100 µM | [2] > 100 µM | [3] > 100 µM | [4] > 100 µM | [5] > 100 µM | [6] > 100 µM | [7] > 100 µM | [8] > 100 µM | [9] > 100 µM | [10] > 100 µM | [11] > 100 µM | [12] > 100 µM | [13] > 100 µM | [14] > 100 µM | [15] > 100 µM | [16] > 100 µM | [17] > 100 µM | [18] > 100 µM | [19] > 100 µM

N/C(=N\O)N/N=C/c1cccs1
inactive: [1] 34 µM | [2] 55.8 µM | [3] 35.4 µM | [4] 17.2 µM | [5] > 100 µM | [6] > 100 µM | [8] 47.1 µM | [9] > 100 µM | [10] > 100 µM | [11] 47.1 µM | [12] 34.4 µM | [13] 24.7 µM | [14] 33.4 µM | [15] 42.3 µM | [16] 55.7 µM | [17] 67.3 µM | [18] 76.7 µM | [19] > 100 µM

CN(C)CC1CCCC(CN(C)C)C1OC(=O)c1ccccc1 (configuration not stated)
inactive: [1] > 100 µM | [2] > 100 µM | [3] > 100 µM | [4] > 100 µM | [5] > 100 µM | [6] > 100 µM | [7] > 100 µM | [8] > 100 µM | [9] > 100 µM | [10] > 100 µM | [11] > 100 µM | [12] > 100 µM | [13] > 100 µM | [14] > 100 µM | [15] > 100 µM | [16] > 100 µM | [17] > 100 µM | [18] > 100 µM | [19] > 100 µM

C[C@@]1(CBr)C[C@@](C)(/C=C/Cl)[C@@H](Cl)C[C@H]1Cl
inactive: [1] 11.6 µM | [2] 16.4 µM | [3] 14.8 µM | [4] 15.9 µM | [5] 7.03 µM | [6] 16.9 µM | [7] 4.03 µM | [8] 15.5 µM | [9] 2.92 µM | [10] 13.8 µM | [11] 13.5 µM | [12] 17.3 µM | [13] 14.2 µM | [14] 16.1 µM | [15] 12.7 µM | [16] 13.5 µM | [17] 1.9 µM | [18] 2.74 µM | [19] 14.7 µM

O=C(C[n+]1ccccc1)NNC(=O)/C(=C/c1ccc2c(c1)OCO2)NC(=O)c1ccccc1
inactive: [1] 32.1 µM | [2] > 81.8 µM | [3] 44.7 µM | [4] 49.1 µM | [5] 68.9 µM | [6] > 100 µM | [7] 30.4 µM | [8] 48 µM | [9] 25.9 µM | [10] 41.7 µM | [11] > 100 µM | [12] > 100 µM | [13] 44.4 µM | [14] > 100 µM | [15] > 100 µM | [16] > 46.1 µM | [17] 18.2 µM | [18] > 100 µM | [19] > 100 µM

COc1cc2c(cc1OC)C1(c3ccc(Cl)cc3)ON=C(c3ccccc3)N1CS2 (configuration not stated)
inactive: [1] > 100 µM | [2] > 100 µM | [3] 38.7 µM | [4] > 100 µM | [5] 6.37 µM | [6] 83.2 µM | [7] 11 µM | [8] 73.8 µM | [9] 41 µM | [10] 21.2 µM | [11] > 100 µM | [12] > 100 µM | [13] > 100 µM | [14] > 100 µM | [15] 91.8 µM | [16] > 100 µM | [17] 7.05 µM | [18] > 100 µM | [19] > 100 µM

CC(=O)O/N=C(Cl)/C(Cl)=N/OC(C)=O
inactive: [1] > 100 µM | [2] > 100 µM | [3] > 100 µM | [4] > 100 µM | [5] > 100 µM | [6] > 100 µM | [7] > 100 µM | [8] > 100 µM | [9] > 100 µM | [10] > 100 µM | [11] > 100 µM | [12] > 100 µM | [13] > 100 µM | [14] > 100 µM | [15] > 100 µM | [17] > 100 µM | [18] > 100 µM | [19] > 100 µM

Cc1nnc(N/N=C2\C(=O)Nc3ccccc32)n1N
inactive: [1] > 100 µM | [2] > 100 µM | [3] > 100 µM | [4] > 100 µM | [5] > 100 µM | [6] > 100 µM | [7] > 100 µM | [8] > 100 µM | [9] > 100 µM | [10] > 100 µM | [11] > 100 µM | [12] > 100 µM | [13] > 100 µM | [14] > 100 µM | [15] > 100 µM | [16] 67.5 µM | [17] > 100 µM | [18] > 100 µM | [19] > 100 µM

CN1C(c2ccccc2)CC(=NO)CC1c1ccccc1 (configuration not stated)
inactive: [1] 40.2 µM | [2] 34.8 µM | [3] > 100 µM | [4] 55.7 µM | [5] 19.3 µM | [6] 82 µM | [7] 19.2 µM | [8] 43 µM | [9] 28.2 µM | [10] 62.5 µM | [11] 67.3 µM | [12] 48.2 µM | [13] > 100 µM | [14] 97.5 µM | [15] 41.4 µM | [16] 20.2 µM | [17] 26.9 µM | [18] 53.5 µM | [19] > 100 µM

C[N+](C)(C)CC1CCCC(C[N+](C)(C)C)C1O (configuration not stated)
inactive: [1] > 100 µM | [2] > 100 µM | [3] > 100 µM | [4] > 100 µM | [5] > 100 µM | [6] > 100 µM | [7] > 100 µM | [8] > 100 µM | [9] > 100 µM | [10] > 100 µM | [11] > 100 µM | [12] > 100 µM | [13] > 100 µM | [14] > 100 µM | [15] > 100 µM | [16] > 100 µM | [17] > 100 µM | [18] > 100 µM | [19] > 100 µM
